From patent US12702654B2, “Compositions and methods for treating homocystinuria and other conditions using polyamines” (THE REGENTS OF THE UNIVERSITY OF COLORADO, priority 2020, dated 2026)
Entries after “also recorded” stand apart in the source; their conditions may differ.

What was measured:
HO HCU mice [1] = assay: Plasma metabolite levels (tHcy, methionine cycle amino acids, SAM, SAH) in HO HCU mice; type: in vivo, mouse
Description: It is noted that WT mice (n=6) include untreated controls. HO HCU mice (N=8, 4 of each sex in each group) were either untreated or treated with about 3.0% (w/v) glycine w/v or about 3.0% (w/v) serine given in drinking water supplied ad libitum for one week. Plasma samples were taken and Hcy and cysteine levels were determined. *** denotes a P value <0.0001.
In accordance with these methods, HO HCU mice (N=8, 4 of each sex in each group) were treated with either about 3.0% glycine w/v or about 3.0% w/v serine given in drinking water supplied ad libitum for one week in the presence and absence of about 3.0% w/v betaine. Plasma samples were taken from the mice at various times and Hcy levels were determined.
Plasma Hcy levels were determined from HO HCU mice (n=8 per group) in the presence and absence of either about 5.0% w/v sodium formate alone or in combination with about 3.0% betaine given in drinking water given ad libitum.
In one exemplary method, mice were given zinc in drinking water. For this example, 8 HO HCU mice were provided drinking water supplemented with zinc (e.g. 0.05% w/v Zinc sulfate) given ad libitum for one week.
In another exemplary method, the transsulfuration pathway and methionine-folate cycle pathways, as show in the sematic illustrated in FIG. 18A, were assessed. In brief, three experimental groups (n=8 for each group) of male mice consisting of either untreated WT controls or HO HCU mice in the presence or absence of betaine treatment. Betaine was administered by dissolving the compound in drinking water at 30 g/l and was supplied ad libitum to the mice for one week. Treatment water was replenished twice per week.
A comparative reference data set was generated for these mice by examining plasma levels of tHcy, methionine, cysteine, serine, glycine, dimethylglycine, methylglycine (MG, SAM and SAH). In brief, determination of plasma levels of amino acids relevant to the methionine cycle were determined using methods similar to those described in Stabler et al., Blood. 81 (1993) 3404-3413, incorporated in its entirety herein. Determination of hepatic 5-methylTHF was performed by liquid chromatography-tandem mass spectrometry using methods similar to those described in Witham et al., PLoS One. 8 (2013) e77923, incorporated in its entirety herein. The global metabolomic analysis of methionine and folate cycle related metabolites was carried out by Metabolon, Inc. Briefly, sample preparation was performed utilizing the automated MicroLab STAR® system. Sample preparation was performed using a proprietary series of organic and aqueous extractions to remove the protein fraction while allowing maximum recovery of small molecules. The resulting extract was divided into two fractions: one for analysis by liquid chromatography and one for analysis by gas chromatography. Each sample was then frozen and dried under vacuum. The LC/mass spectrometer portion of the platform was based on a Waters ACQUITY UPLC and a Thermo-Finnigan LTQ mass spectrometer, which consisted of an electrospray ionization source and linear ion-trap mass analyzer. Samples were analyzed on a Thermo-Finnigan Trace DSQ fast-scanning single-quadrupole mass spectrometer using electron impact ionization. Identification of known chemical entities was based on comparison to library entries of authenticated standards. Tissue polyamines putrescine, spermidine and spermine and 5-methylthioadenosine (MTA) were determined by liquid chromatography-tandem mass spectrometry using methods similar to those described in Stevens et al., J Chromatogr A 1217 (2010) 3282-3288, incorporated in its entirety herein.

SAHH = assay: Western blotting of hepatic SAHH expression; type: in vivo, mouse; details: HO mice, 30 g/l in drinking water ad libitum, one week
Description: (§1) To investigate the effects of these treatments upon the hepatic regulatory changes in enzyme expression induced by HCU, the human transgenic HO mouse model of HCU was used. In brief, experimental groups consisting of 8 HO mice on a C57BL/6J background and 8 C57BL/6J WT littermate control mice bred in house were used. Mice in both groups were male and aged between 3 and 4 months. Except where otherwise stated, all mice were maintained on standard chow. All diets were administered using a paired-feeding design to ensure isocaloric intake between all experimental groups and body weights were measured once per week. There was no significant difference in body weight between mice in any of the experimental groups. Betaine and taurine were in this example, both administered by dissolving these compounds in drinking water at 30 g/l ([…] 3% w/v) and were supplied ad libitum for one week. Treatment water was replenished twice per week.
Western blotting analysis of SAHH, MTHFR and SHMT2 expression was performed in liver samples from HO mice in the presence and absence of betaine or taurine treatment.

MAT1A = assay: Western blotting of hepatic MAT1A expression; type: in vivo, mouse; details: HO HCU mice, 30 g/l in drinking water ad libitum, one week
Description: as §1
(§2) These observations are the first to report betaine and taurine acting to regulate expression of these processes. Therefore, this observation supports that taurine alone or in combination with betaine and other treatments for genetic homocystinuria are viable options for avoiding dietary restraints and treating these conditions.

GNMT = assay: Western blotting of hepatic GNMT expression; type: in vivo, mouse; details: HO HCU mice, 30 g/l in drinking water ad libitum, one week
Description: as §1, §2

HO HCU mice [2] = assay: Tail bleeding time / hypercoagulative phenotype in HO HCU mice; type: in vivo, mouse
Description: In another exemplary method, effect of polyamines (e.g. spermidine and spermine) on the hypercoagulative phenotype induced by HCU was assessed which is a measure of treatment for genetic HCU where rapid coagulation is a side effect of these conditions. In brief, mice containing both the human CBS transgene and no functional copy of the mouse equivalent gene were identified by PCR from the litters of progeny of 11181×MKO^+/− F1 mice backcrossed to MKO^+/− mice. These mice were designated as “human only” (HO) mice and used as a human model of HCU. […] In order to further investigate the possible therapeutic potential of polyamine (e.g. spermidine and spermine) therapy in HCU, WT and HO HCU mice were given either: […]; […] in drinking water given ad libitum; or drinking water (untreated, control). After one week, tail bleeding times were determined for untreated wild type (WT) control B6 mice and HO HCU mice from all treatment groups.

[3] = system: pro-inflammatory cytokines (TNF-α, IL-1β); assay: Pro-inflammatory cytokine expression in HO HCU mice; type: in vivo, mouse
HO HCU mice [4] = assay: Plasma metabolite levels (tHcy, methionine cycle amino acids, SAM, SAH) in HO HCU mice; type: in vivo, mouse; details: long-term betaine treatment, no methionine-restriction
Cbs null mouse = details: betaine treatment; cited from earlier work
[5] = HO HCU mice, betaine 30 g/l in drinking water, one week
[6] = HO model, betaine treatment, P<0.0001
[7] = HO HCU mice, prolonged betaine treatment

With `C[N+](C)(C)CC(=O)O` [betaine, N,N,N-trimethylglycine] the “increase of plasma Met compared to untreated HCU mice” value (HO HCU mice [1]; [5]) was 3 fold, the “plasma DMG” value (HO HCU mice [1]; [5]) was “strongly increased” and the “plasma MG” value (HO HCU mice [1]; [5]) was “strongly increased”. For the same compound, the “plasma SAH” value (HO HCU mice [1]; [5]) was “significantly decreased, but not normalized”, the “plasma SAM” value (HO HCU mice [1]; [5]) was “significantly decreased, but not normalized” and the plasma glycine (HO HCU mice [1]; [5]) was “did not change significantly”. The plasma serine (HO HCU mice [1]; [5]) was “did not change significantly”, the “decrease in plasma tHcy” value (HO HCU mice [1]; HO HCU mice, betaine 30 g/l in drinking water, one week, P<0.0001) was roughly 60% and the “depletion of plasma total cysteine” value (HO HCU mice [1]; HO HCU mice, betaine 30 g/l in drinking water, one week, remained lower than WT) was “significantly ameliorated”. For the same compound, the “decrease in AdoHcy levels” value (HO HCU mice [1]; [6]) was “fivefold decrease”, the “plasma DMG” value (HO HCU mice [1]; [6]) was “increase” and the “plasma MG” value (HO HCU mice [1]; [6]) was “increase”. For the same compound, the plasma cysteine (HO HCU mice [1]; [6]) was “increase”, the plasma methionine (HO HCU mice [1]; [6]) was “increase” and the “decrease in plasma AdoMet” value (HO HCU mice [1]; HO model, betaine treatment, P=0.0039) was 40%. The “reduction of Hcy levels by standard treatment alone” value (HO HCU mice [1]; betaine alone, as previously observed) was 15-25%, the “HCU-mediated induction of hepatic SAHH expression” value (SAHH) was “completely reversed” and the “hepatic MAT1a expression” value (MAT1A) was “induced expression”. For the same compound, the “hepatic GNMT expression” value (GNMT) was “induced expression”, the hypercoagulative phenotype (HO HCU mice [2]; betaine treatment (one week)) was “significant amelioration of the hypercoagulative phenotype; also recorded: responded to betaine treatment” and the coagulation phenotype (HO HCU mice [2]; prolonged betaine treatment) was “reversion to a hypercoagulative phenotype”. The “plasma levels of IL-1β” value [3, 7] was “significant increase”, the “plasma levels of TNF-α” value [3, 7] was “significant increase” and the pro-inflammatory cytokine expression ([3]; HO model, one week of betaine treatment) was “virtual ablation of most of the pro-inflammatory cytokine expression; also recorded: decrease pro-inflammatory cytokine expression”. The “ability of betaine treatment to lower homocysteine” value (HO HCU mice [4]) was “diminished significantly over time”, the “Hcy in Cbs (−/−) mice” value (Cbs null mouse) was “without significantly lowering Hcy” and the “fertility of female Cbs (−/−) mice” value (Cbs null mouse) was “restored fertility”. The “severe liver injury, steatosis, and fibrosis in Cbs (−/−) mice” value (Cbs null mouse) was “not significantly improved” and the “survival of Cbs (−/−) mice” value (Cbs null mouse) was “improved survival”.
